Test results as given in the supplement of paper PMC10307832.

Key:
Assay in all cases: relative viability (nuclei count vs DMSO), 5 days (fraction); higher = more cells survive
[1] = compound: CC1=C(C(=O)N2C=CSC2=N1)CCN3CCC(=C(C4=CC=CC=C4)C5=CC=C(C=C5)F)CC3 + COc1cc2c(Oc3ccc(NC(=O)C4(C(=O)Nc5ccc(F)cc5)CC4)cc3F)ccnc2cc1OCCCN1CCOCC1 [Foretinib] (partner 0.25 µM)
In short: (§1)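 For relative viability, nuclei counts in treated wells were divided by those in vehicle wells. Lung cancer cell lines had been pin-tool dosed in 1536-well plates the day after seeding and cultured for 5 days, then fixed and stained in one step (final 0.05% Triton X-100, 1% formaldehyde, 1 ug/ml Hoechst) and imaged at 4×. Doses were one drug alone or a fixed anchor-drug dose plus five library-drug doses (not always all listed) in √10 steps, and values are duplicate-plate medians.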

[2] = compound: CC1=C(C(=O)N2C=CSC2=N1)CCN3CCC(=C(C4=CC=CC=C4)C5=CC=C(C=C5)F)CC3 + C[C@]1(O)C[C@@H](c2nc(-c3ccc4ccc(-c5ccccc5)nc4c3)c3c(N)nccn32)C1 [Linsitinib] (partner 1 µM)
In short: as §1

[3] = compound: CC1=C(C(=O)N2C=CSC2=N1)CCN3CCC(=C(C4=CC=CC=C4)C5=CC=C(C=C5)F)CC3 + CCNC(=O)c1noc(-c2cc(C(C)C)c(O)cc2O)c1-c1ccc(CN2CCOCC2)cc1 [Luminespib] (partner 0.01 µM)
In short: as §1

[4] = compound: CC1=C(C(=O)N2C=CSC2=N1)CCN3CCC(=C(C4=CC=CC=C4)C5=CC=C(C=C5)F)CC3 + CC1(C)CCC(c2ccc(Cl)cc2)=C(CN2CCN(c3ccc(C(=O)NS(=O)(=O)c4ccc(N[C@H](CCN5CCOCC5)CSc5ccccc5)c(S(=O)(=O)C(F)(F)F)c4)cc3)CC2)C1 [Navitoclax] (partner 0.5 µM)
In short: as §1

| Cell Line | relative viability ([1]; first compound 0.08 µM) | relative viability ([1]; first compound 0.253 µM) | relative viability ([1]; first compound 0.8 µM) | relative viability ([1]; first compound 2.53 µM) | relative viability ([1]; first compound 8 µM) | relative viability ([2]; first compound 0.08 µM) | relative viability ([2]; first compound 0.253 µM) | relative viability ([2]; first compound 0.8 µM) | relative viability ([2]; first compound 2.53 µM) | relative viability ([2]; first compound 8 µM) | relative viability ([3]; first compound 0.253 µM) | relative viability ([3]; first compound 0.8 µM) | relative viability ([3]; first compound 2.53 µM) | relative viability ([3]; first compound 8 µM) | relative viability ([3]; first compound 0.08 µM) | relative viability ([4]; first compound 0.08 µM) | relative viability ([4]; first compound 0.253 µM) | relative viability ([4]; first compound 0.8 µM) | relative viability ([4]; first compound 2.53 µM) | relative viability ([4]; first compound 8 µM) |
| --- | --- | --- | --- | --- | --- | --- | --- | --- | --- | --- | --- | --- | --- | --- | --- | --- | --- | --- | --- | --- |
| NCI-H358 | 0.568 | 0.665 | 0.695 | 0.87 | 0.483 | 0.819 | 0.74 | 0.779 | 0.874 | 0.561 | 0.339 | 0.384 | 0.307 | 0.261 |  |  |  |  |  |  |
| NCI-H522 |  |  |  |  |  |  |  |  |  |  | 1.16 | 1.21 | 1.2 | 0.897 | 1.18 |  |  |  |  |  |
| NCI-H650 | 0.994 | 1.11 | 1.13 | 1.17 | 1.06 |  | 0.81 | 0.779 | 0.878 | 0.608 | 0.827 | 0.951 | 0.877 | 0.683 | 0.573 |  |  |  |  |  |
| NCI-H661 | 0.871 | 1.02 | 0.983 | 1.05 | 0.814 | 0.581 | 0.607 | 0.675 | 0.483 | 0.553 | 0.984 | 0.928 | 1.04 | 0.598 | 1.03 |  |  |  |  |  |
| NCI-H1299 | 1.19 | 1.14 | 1.13 | 1.14 | 1.02 | 0.901 | 0.98 | 1.09 | 0.932 | 0.607 |  |  |  |  |  | 1.14 | 1.03 | 1.03 | 1.06 | 0.654 |
| NCI-H1563 | 0.943 | 0.87 | 0.907 | 0.946 | 0.769 | 1.12 | 1.26 | 1.2 | 1.1 | 1.14 | 0.572 | 0.49 | 0.508 | 0.534 | 0.643 |  |  |  |  |  |
| NCI-H1650 | 1.09 | 1.12 | 1.15 | 1.21 | 0.65 |  |  |  |  |  | 0.204 | 0.196 | 0.188 | 0.189 | 0.182 | 0.992 | 1.2 | 1.16 | 1.44 | 0.865 |
| NCI-H1703 | 0.4 | 0.415 | 0.321 | 0.363 | 0.319 | 1.14 | 0.819 | 0.585 | 0.888 | 0.482 |  |  |  |  |  | 1.19 | 1.13 | 1.1 | 1.3 | 0.627 |
| NCI-H1792 |  |  |  |  |  | 0.446 | 0.353 | 0.606 | 0.379 | 0.575 | 0.444 | 0.585 | 0.379 | 0.349 | 0.354 | 0.454 | 0.518 | 0.602 | 0.481 | 0.47 |
| NCI-H2170 | 0.874 | 1.03 | 1.11 | 1.06 | 0.674 |  |  |  |  |  | 0.733 | 0.745 | 0.838 | 0.537 | 0.516 | 0.515 | 0.605 | 0.649 | 0.492 | 0.58 |
| NCI-H2342 | 0.884 | 1.02 | 0.948 | 1.09 | 0.857 |  |  |  |  |  | 0.791 | 0.789 | 0.66 | 0.619 | 0.657 |  |  |  |  |  |
